The results in this text go back to patent US10947201B2, “Certain chemical entities, compositions, and methods” (NEUPHARMA, INC., priority 2015, dated 2021).

pIC50: −log10 of the molar value.

One assay addresses T1, EGFR (ErbB1) (Homo sapiens, UniProt P00533).
T1 construct: purchased Invitrogen
Nature of the assay: Z'-LYTE kinase inhibition assay (Invitrogen), EGFR. The conditions noted are these: for inhibition at 0.1 µM: compound at 100 nM, [ATP] = Km; for inhibition at 0.041 µM: compound at 41 nM, 10 μM of ATP. The format is biochemical. As to the method: (§1) Inhibitory activities of compounds against BTK, EGFR and EGFR mutants (EGFR L858R/T790M) were measured by Invitrogen using Z′-LYTE® Method as briefly described in the following.
(§2) Test Compounds are screened in 1% DMSO (final) in the well. For 10 point titrations, 3-fold serial dilutions are conducted from the starting concentration. All ATP Solutions are diluted to a 4× working concentration in Kinase Buffer (50 mM HEPES pH 7.5, 0.01% BRIJ-35, 10 mM MgCl2, 1 mM EGTA). Peptide/Kinase Mixtures are diluted to a 2× working concentration in the appropriate Kinase Buffers as described below.
(i) Peptide/Kinase Mixtures for measurement of EGFR (ErbB1):
The 2×EGFR (ErbB1)/Tyr 04 mixture is prepared in 50 mM HEPES pH 7.5, 0.01% BRIJ-35, 10 mM MgCl2, 4 mM MnCl2, 1 mM EGTA, 2 mMDTT. The final 10 μL Kinase Reaction consists of 1.1-5.25 ng EGFR (ErbB1) and 2 μM Tyr 04 in 50 mM HEPES pH 7.5, 0.01% BRIJ-35, 10 mM MgCl2, 2 mM MnCl2, 1 mM EGTA, 1 mM DTT. After the 1 hour Kinase Reaction incubation, 5 μL of a 1:64 dilution of DevelopmentReagent B is added.
(§3) Reaction starts by 30-second shaking of mixture consisting of 2.5 μL 4× test compound, 5 μL 2× kinase reaction mixture and 2.5 μL 4×ATP Solution on Bar-coded Corning, low volume NBS, black 384-well plate (Corning Cat. #3676). Then the mixture is incubated for 60-minute at room temperature for the kinase reaction, followed by addition of 5 μL of a 1:1024 dilution of development reagent A and 30-second plate shake. The mixture is then incubated for another 60-minute at room temperature for development reaction. Finally fluorescence is read by plate reader. […] The scale utilized in Tables 2 and 3 is as follows: ++ more than 50% inhibition and + less than 50% inhibition.
(§4) To determine IC50 of a compound against EGFR or EGFR mutants, a series of concentrations of the compound were tested for the inhibition. IC50 was calculated by plotting the concentration of compound vs the percentage of inhibition in treated wells using GraphPad Prism 5. […] The scale utilized in Table 4 is as follows: ++ less than 100 nM and + greater than 100 nM.

The next assay concerns the target T2, EGFR (ErbB1) T790M L858R (Homo sapiens, UniProt P00533, L858R/T790M).
T2 construct: purchased Invitrogen
Nature of the assay: Z'-LYTE kinase inhibition assay (Invitrogen), EGFR L858R/T790M. Format: biochemical. The conditions noted are these: for inhibition at 0.1 µM: compound at 100 nM, [ATP] = Km; for inhibition at 0.0137 µM: compound at 13.7 nM, 10 μM of ATP. As to the method: as §1, §2
(iv) Peptide/Kinase Mixtures for measurement of EGFR (ErbB1) T790M L858R:
The 2×EGFR (ErbB1) T790M L858R/Tyr 04 mixture is prepared in 50 mM HEPES pH 6.5, 0.01% BRIJ-35, 10 mM MgCl2, 1 mM EGTA, 0.02% NaN3. The final 10 μL Kinase Reaction consists of 0.38-4.22 ng EGFR (ErbB1) T790M L858R and 2 μM Tyr 04 in 50 mM HEPES pH 7.0, 0.01% BRIJ-35, 10 mM MgCl2, 1 mM EGTA, 0.01% NaN3. After the 1 hour Kinase Reaction incubation, 5 μL of a 1:64 dilution of Development Reagent B is added.
as §3, §4

A further assay has as its target T3, BTK (Homo sapiens, UniProt Q06187).
T3 construct: purchased Invitrogen
Nature of the assay: Z'-LYTE kinase inhibition assay (Invitrogen), BTK. The format is biochemical. The following applies: for inhibition at 0.1 µM: compound at 100 nM, [ATP] = Km; for inhibition at 0.041 µM: compound at 41 nM, 10 μM of ATP. The procedure:
as §1, §2
(v) Peptide/Kinase Mixtures for measurement of BTK:
The 2×BTK/Tyr 01 mixture is prepared in 50 mM HEPES pH 7.5, 0.01% BRIJ-35, 10 mM MgCl2, 1 mM EGTA. The final 10 μL Kinase Reaction consists of 1.04-10.4 ng BTK and 2 μM Tyr 01 in 50 mM HEPES pH 7.5, 0.01% BRIJ-35, 10 mM MgCl2, 1 mM EGTA. After the 1 hour Kinase Reaction incubation, 5 μL of a 1:256 dilution of Development Reagent B is added.
as §3, §4

The subject of another assay is H1975 cells. Nature of the assay: MTT cell growth inhibition assay, H1975. The format is cell-based. The following applies: Homo sapiens, NCI-H1975, H1975 cells (EGFR L858R/T790M), 72 h. The procedure: Inhibition of cell growth by compounds was measured using MTT assay (Mosmann, T., Journal of Immunological Methods, 1983, 65, 55-63). Tumor cell lines were purchased from ATCC (American Type Culture Collection, Manassas, Va.). All cell lines were maintained in RPMI 1640 (Hyclone) supplemented with 10% fetal bovine serum (FBS, Hyclone), glutamine (2 mM, Hyclone), and antibiotics (penicillin 100 U/mL and streptomycin 50 μg/mL) at 37° C. in a humidified atmosphere of 5% CO2 in air. Taxol (as a positive control, Sigma) and compounds were dissolved in DMSO (Sigma), and the final concentration of DMSO in the medium was 1%. Tumor cells were plated in 96-well plates at densities of about 4000 cells/well of a 96-well plate and allowed to adhere/grow for 24 h. They were then treated with various concentrations of drug for 72 h. 3-(4,5-Dimethylthiazol-2-yl)-2,5-diphenyltetrazolium bromide (MTT, Sigma) was used to determine the number of viable cells at the time of compound addition and the number of cells remaining after 72 h compound exposure. The number of cells remaining after 72 h was compared to the number of viable cells at the time of compound addition by measuring the absorbance at 570 nm, allowing for the calculation of growth inhibition.
All concentrations of compounds were tested in triplicate and controls were averaged over 4 wells. IC50 was calculated by plotting the concentration of compound vs the percentage of inhibition in treated wells using GraphPad Prism 5.
Tables 5 show IC50 values of several compounds of the invention in A549, A431, H1299, and H1975 human cancer cells. A549 cells have a mutation on KRAS, H3255 cells have L858R mutation, and H1975 cells have double EGFR mutations (L858R/T790M). The scale utilized in Table 5 is as follows: +++ less than 100 nM; ++ between 100 nM and 500 nM; and + greater than 500 nM.

T2 sequence (P00533 25-1210 T790M/L858R): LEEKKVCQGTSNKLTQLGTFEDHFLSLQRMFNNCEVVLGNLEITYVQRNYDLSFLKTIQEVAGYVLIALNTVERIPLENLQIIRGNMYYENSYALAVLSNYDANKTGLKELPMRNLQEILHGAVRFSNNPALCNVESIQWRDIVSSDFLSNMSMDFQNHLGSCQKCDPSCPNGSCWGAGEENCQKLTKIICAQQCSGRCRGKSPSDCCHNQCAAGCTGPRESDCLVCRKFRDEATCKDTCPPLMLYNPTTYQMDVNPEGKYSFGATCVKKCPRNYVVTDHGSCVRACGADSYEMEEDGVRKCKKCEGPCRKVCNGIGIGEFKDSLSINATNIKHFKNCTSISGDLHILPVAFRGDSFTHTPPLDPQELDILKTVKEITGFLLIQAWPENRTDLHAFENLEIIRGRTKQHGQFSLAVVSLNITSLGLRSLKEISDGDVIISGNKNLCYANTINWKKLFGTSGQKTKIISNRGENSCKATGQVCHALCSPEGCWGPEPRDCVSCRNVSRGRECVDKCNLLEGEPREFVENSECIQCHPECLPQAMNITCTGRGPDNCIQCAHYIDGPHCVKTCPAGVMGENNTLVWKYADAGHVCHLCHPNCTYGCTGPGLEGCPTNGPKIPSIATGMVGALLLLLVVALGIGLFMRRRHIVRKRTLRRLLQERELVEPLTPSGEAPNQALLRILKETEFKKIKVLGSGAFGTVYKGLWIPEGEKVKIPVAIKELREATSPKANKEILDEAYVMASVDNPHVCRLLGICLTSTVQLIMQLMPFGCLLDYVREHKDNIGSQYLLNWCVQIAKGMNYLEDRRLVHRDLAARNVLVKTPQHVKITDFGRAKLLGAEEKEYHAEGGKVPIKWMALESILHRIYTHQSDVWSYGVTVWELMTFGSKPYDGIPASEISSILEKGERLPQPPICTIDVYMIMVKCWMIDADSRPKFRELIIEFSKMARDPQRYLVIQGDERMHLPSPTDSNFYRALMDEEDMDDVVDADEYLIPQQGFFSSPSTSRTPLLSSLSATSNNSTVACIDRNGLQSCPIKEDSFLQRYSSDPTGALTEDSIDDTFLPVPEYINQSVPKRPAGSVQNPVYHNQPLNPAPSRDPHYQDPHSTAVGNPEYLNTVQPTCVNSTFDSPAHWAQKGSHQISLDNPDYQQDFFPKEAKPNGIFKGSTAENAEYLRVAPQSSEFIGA
T3 sequence (Q06187 whole entry): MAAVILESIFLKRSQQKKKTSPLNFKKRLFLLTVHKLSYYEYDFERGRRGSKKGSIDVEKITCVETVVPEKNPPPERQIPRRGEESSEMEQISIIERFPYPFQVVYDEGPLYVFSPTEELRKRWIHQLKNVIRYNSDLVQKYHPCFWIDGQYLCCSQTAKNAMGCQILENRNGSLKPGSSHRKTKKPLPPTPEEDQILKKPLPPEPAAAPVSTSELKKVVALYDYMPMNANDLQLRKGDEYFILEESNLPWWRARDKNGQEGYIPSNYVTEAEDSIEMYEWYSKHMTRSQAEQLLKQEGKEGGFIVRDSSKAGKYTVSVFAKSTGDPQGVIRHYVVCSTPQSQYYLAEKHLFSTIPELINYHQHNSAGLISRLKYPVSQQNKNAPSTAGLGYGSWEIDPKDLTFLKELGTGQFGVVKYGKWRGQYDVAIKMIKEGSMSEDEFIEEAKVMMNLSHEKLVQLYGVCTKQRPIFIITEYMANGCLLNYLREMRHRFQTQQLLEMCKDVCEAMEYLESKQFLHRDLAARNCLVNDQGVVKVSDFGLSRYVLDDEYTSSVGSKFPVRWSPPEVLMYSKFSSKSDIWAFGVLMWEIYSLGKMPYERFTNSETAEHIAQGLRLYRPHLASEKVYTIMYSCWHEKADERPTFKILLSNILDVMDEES
T1 sequence (P00533 25-1210): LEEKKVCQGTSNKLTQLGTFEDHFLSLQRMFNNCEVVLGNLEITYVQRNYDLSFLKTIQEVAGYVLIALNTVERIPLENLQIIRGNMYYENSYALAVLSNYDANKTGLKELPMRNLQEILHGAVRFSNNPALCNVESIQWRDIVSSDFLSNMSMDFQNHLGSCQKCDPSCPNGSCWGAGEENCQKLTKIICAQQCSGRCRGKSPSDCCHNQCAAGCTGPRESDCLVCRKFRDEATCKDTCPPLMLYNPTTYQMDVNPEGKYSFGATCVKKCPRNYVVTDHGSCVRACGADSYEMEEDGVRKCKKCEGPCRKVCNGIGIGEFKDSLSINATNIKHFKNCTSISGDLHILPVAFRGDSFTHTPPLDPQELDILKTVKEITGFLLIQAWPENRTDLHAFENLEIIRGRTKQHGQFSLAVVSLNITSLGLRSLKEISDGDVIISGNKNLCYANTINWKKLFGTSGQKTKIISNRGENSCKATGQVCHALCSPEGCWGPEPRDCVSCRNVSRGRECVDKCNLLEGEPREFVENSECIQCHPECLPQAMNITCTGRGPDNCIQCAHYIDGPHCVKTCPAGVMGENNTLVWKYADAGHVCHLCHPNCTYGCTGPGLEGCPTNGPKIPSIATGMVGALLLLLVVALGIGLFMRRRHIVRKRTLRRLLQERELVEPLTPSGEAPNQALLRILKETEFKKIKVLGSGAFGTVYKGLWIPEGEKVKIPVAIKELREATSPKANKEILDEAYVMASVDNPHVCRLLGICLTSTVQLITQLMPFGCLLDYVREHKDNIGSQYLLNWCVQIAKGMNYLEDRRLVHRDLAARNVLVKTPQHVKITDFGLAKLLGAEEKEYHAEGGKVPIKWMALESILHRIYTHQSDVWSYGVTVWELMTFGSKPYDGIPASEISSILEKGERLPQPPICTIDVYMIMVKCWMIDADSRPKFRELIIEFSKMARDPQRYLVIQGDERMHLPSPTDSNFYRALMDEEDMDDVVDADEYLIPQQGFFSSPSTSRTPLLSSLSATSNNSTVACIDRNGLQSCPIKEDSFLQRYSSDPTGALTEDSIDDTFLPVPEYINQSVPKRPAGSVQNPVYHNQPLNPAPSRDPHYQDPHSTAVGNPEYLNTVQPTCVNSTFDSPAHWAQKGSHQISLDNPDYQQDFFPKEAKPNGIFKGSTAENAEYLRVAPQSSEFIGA

For the compound `C=CC(=O)N1CCC(n2cnc3cnc(Nc4ccc(N5CCN(CCO)CC5)c(F)c4F)nc32)C1` (centres unmarked) [Example A022], the inhibition at 0.1 µM against EGFR (ErbB1), against EGFR (ErbB1) T790M L858R and on BTK was less than 50% each time.
Take `C=CC(=O)N1CCCC(n2cnc3cnc(Nc4ccc(N5CCN(C)CC5)c(F)c4F)nc32)C1` (centres unmarked) [Example A023, 1-(3-(2-((2,3-difluoro-4-(4-methylpiperazin-1-yl)phenyl)amino)-9H-purin-9-yl)piperidin-1-yl)prop-2-en-1-one]: the inhibition at 0.1 µM against EGFR (ErbB1), against EGFR (ErbB1) T790M L858R and at BTK was less than 50% each time.
In the case of `C=CC(=O)N1CCCC(n2cnc3cnc(Nc4ccc(N5CCN(CCO)CC5)c(F)c4F)nc32)C1` (centres unmarked) [Example A024, 1-(3-(2-((2,3-difluoro-4-(4-(2-hydroxyethyl)piperazin-1-yl)phenyl)amino)-9H-purin-9-yl)piperidin-1-yl)prop-2-en-1-one], the inhibition at 0.1 µM against EGFR (ErbB1), against EGFR (ErbB1) T790M L858R and at BTK was less than 50% throughout.
Turning to `C=CC(=O)Nc1cc(Nc2ncc3cccc(Br)c3n2)ccc1N(C)CCN(C)C` [Example C001, N-(5-((8-bromoquinazolin-2-yl)amino)-2-((2-(dimethylamino)ethyl)(methyl)amino)phenyl) acrylamide], the inhibition at 0.0137 µM at EGFR (ErbB1) T790M L858R is less than 50%. The same compound had a pIC50 with H1975 cells of more than 7.00.
Regarding `C=CC(=O)Nc1cc(Nc2ncc3cccc(-c4ccncc4)c3n2)ccc1N(C)CCN(C)C` [Example C007, N-(2-((2-(dimethylamino)ethyl)(methyl)amino)-5-((8-(pyridin-4-yl)quinazolin-2-yl)amino)phenyl)acrylamide], the inhibition at 0.041 µM against EGFR (ErbB1) is less than 50%; at BTK, more than 50%. Moreover, the values for the inhibition at 0.1 µM at EGFR (ErbB1), at EGFR (ErbB1) T790M L858R and against BTK were less than 50%, less than 50% and more than 50%, respectively. Also, the inhibition at 0.0137 µM at EGFR (ErbB1) T790M L858R was less than 50%. In addition, the pIC50 in the assay with H1975 cells was more than 7.00.
For `C=CC(=O)Nc1cc(Nc2ncc3cccc(-c4ccccc4F)c3n2)ccc1N(C)CCN(C)C` [Example C009, N-(2-((2-(dimethylamino)ethyl)(methyl)amino)-5-((8-(2-fluorophenyl)quinazolin-2-yl)amino)phenyl)acrylamide], the inhibition at 0.041 µM against EGFR (ErbB1) was less than 50%; on BTK, more than 50%. Moreover, the values for the inhibition at 0.1 µM on EGFR (ErbB1), against EGFR (ErbB1) T790M L858R and against BTK were less than 50%, less than 50% and more than 50%, respectively. At EGFR (ErbB1) T790M L858R, this compound registered an inhibition at 0.0137 µM of more than 50%. This compound also showed a pIC50 in the assay with H1975 cells of more than 7.00.
On to `C=CC(=O)Nc1cc(Nc2ncc3cccc(-c4cccnc4)c3n2)ccc1N(C)CCN(C)C` [Example C010, N-(2-((2-(dimethylamino)ethyl)(methyl)amino)-5-((8-(pyridin-3-yl)quinazolin-2-yl)amino)phenyl)acrylamide], for which, on EGFR (ErbB1), the inhibition at 0.041 µM is less than 50% and the inhibition at 0.1 µM is less than 50%. Also, at EGFR (ErbB1) T790M L858R, the inhibition at 0.0137 µM was less than 50% and the inhibition at 0.1 µM is less than 50%. At BTK, the inhibition at 0.041 µM is more than 50% and the inhibition at 0.1 µM was more than 50%. In addition, the pIC50 in the assay on H1975 cells is 6.30 to 7.00.
At EGFR (ErbB1), `C=CC(=O)Nc1cc(Nc2ncc3cccc(-c4cccc(Cl)c4)c3n2)ccc1N1CCN(C)CC1` [Example C011, N-(5-((8-(3-chlorophenyl)quinazolin-2-yl)amino)-2-(4-methylpiperazin-1-yl)phenyl)acrylamide] had an inhibition at 0.041 µM of less than 50% and an inhibition at 0.1 µM of less than 50%. Besides, on EGFR (ErbB1) T790M L858R, the inhibition at 0.0137 µM is less than 50% and the inhibition at 0.1 µM is less than 50%. The compound also returned an inhibition at 0.1 µM against BTK of more than 50%. This compound also showed a pIC50 with H1975 cells of more than 7.00.
On EGFR (ErbB1), `C=CC(=O)Nc1cc(Nc2ncc3cccc(-c4cccc(Cl)c4)c3n2)ccc1OCCN(C)C` [Example C012, N-(5-((8-(3-chlorophenyl)quinazolin-2-yl)amino)-2-(2-(dimethylamino)ethoxy)phenyl)acrylamide] registered an inhibition at 0.041 µM of less than 50% and an inhibition at 0.1 µM of less than 50%. On EGFR (ErbB1) T790M L858R, this compound returned an inhibition at 0.0137 µM of more than 50% and an inhibition at 0.1 µM of less than 50%. For the same compound, the inhibition at 0.1 µM on BTK was more than 50%. The compound also showed a pIC50 in the assay on H1975 cells of more than 7.00.
With `C=CC(=O)Nc1cc(Nc2ncc3cccc(-c4cccc(Cl)c4)c3n2)ccc1OC1CCN(C)CC1` [Example C013, N-(5-((8-(3-chlorophenyl)quinazolin-2-yl)amino)-2-((1-methylpiperidin-4-yl)oxy)phenyl)acrylamide], at EGFR (ErbB1), the inhibition at 0.041 µM is less than 50% and the inhibition at 0.1 µM is less than 50%. Also, on EGFR (ErbB1) T790M L858R, the inhibition at 0.0137 µM is more than 50% and the inhibition at 0.1 µM is less than 50%. At BTK, the inhibition at 0.1 µM was more than 50%. The same compound showed a pIC50 in the assay with H1975 cells of 6.30 to 7.00.
For the compound `C=CC(=O)Nc1cc(Nc2ncc3cccc(-c4ccccc4Cl)c3n2)ccc1OCCN(C)C` [Example C014, N-(5-((8-(2-chlorophenyl)quinazolin-2-yl)amino)-2-(2-(dimethylamino)ethoxy)phenyl)acrylamide], on EGFR (ErbB1), the inhibition at 0.041 µM was less than 50% and the inhibition at 0.1 µM is less than 50%. At EGFR (ErbB1) T790M L858R, this compound returned an inhibition at 0.0137 µM of less than 50% and an inhibition at 0.1 µM of less than 50%. The compound further had an inhibition at 0.1 µM at BTK of more than 50%. Besides, the pIC50 in the assay with H1975 cells was more than 7.00.
With `C=CC(=O)Nc1cc(Nc2ncc3cccc(-c4cccc(Cl)c4)c3n2)ccc1OCCOC` [Example C015, N-(5-((8-(3-chlorophenyl)quinazolin-2-yl)amino)-2-(2-methoxyethoxy)phenyl)acrylamide], the inhibition at 0.041 µM on EGFR (ErbB1) is less than 50%. Further, the inhibition at 0.1 µM against EGFR (ErbB1), on EGFR (ErbB1) T790M L858R and at BTK was less than 50% in each case. On EGFR (ErbB1) T790M L858R, the inhibition at 0.0137 µM was less than 50%. The compound also gave a pIC50 in the assay with H1975 cells of less than 6.30.
